The source of these data is patent publication US11014915B2, “Selective estrogen receptor degrader” (SUN PHARMA ADVANCED RESEARCH COMPANY LIMITED, priority 2019, dated 2021).

For test [1], the system named is MCF-7 cells harboring mutant ER (WT/Y537S). The test can be described thus: MCF-7 cell growth inhibition assay, Y537S. Conditions: Homo sapiens, MCF7, 168 h; MCF-7 Y537S, seven-day incubation. The class given is cell-based. As for the experimental part:
MCF-7 Cell Growth Inhibition Assay:
The anti-proliferative activity of the test compounds were evaluated in a growth inhibition assay. Briefly, MCF-7 cells harboring ER wild type (Wt), and MCF-7 cells harboring mutant ER (WT/D538G and WT/Y537S) were seeded at a density of 1000 cells/well in 96-well plate in phenol red free RPMI1640 medium supplemented with 10% charcoal stripped fetal bovine serum. The cells were incubated overnight at 37° C. and 5% CO2 followed by the addition of varying concentrations of the test compounds in DMSO. Final concentration of DMSO in the well was 0.5%. Following a seven-day incubation of cells with the test compounds, cell viability was assessed using a Prestoblue™ reagent. The percent inhibition of cell proliferation was calculated by normalizing the cell viability using a vehicle control as 0% inhibition of proliferation.

Test [2] relates to subcutaneous MCF7-Y537S xenografts. Put plainly: In-vivo efficacy in MCF7-Y537S mice xenografts. Further details: species or system female athymic nude mice. How it is done:
In-Vivo Efficacy of Compound of Formula I and Compound of Formula Ia: […]
The efficacy of the compound of Formula I and the compound of Formula Ia were evaluated in female athymic nude mice harboring subcutaneous MCF7-Y537S xenografts. Dose formulations of the compound of Formula I and the compound of Formula Ia were prepared in Tween 80 (0.4% v/v of the total volume of suspension) in 0.5% w/v carboxymethylcellulose (CMC) and administered once daily orally for 28 days. Two perpendicular diameters of tumor were measured with digital Vernier caliper. Tumor volume (V) was calculated using the following equation: V=(a^2×b)/2, where “a” is the width of the tumor (small diameter), and “b” the length (large diameter), both in millimeters. Tumors were monitored twice weekly and compared with a vehicle treated group.

What is called IC50 is the concentration that inhibits the measured activity by half. Molecule `CC1=C(c2cc(F)cc(F)c2)[C@H](c2ccc(/C=C/CN3CC(CF)C3)cc2)Oc2cc(O)ccc21` [Formula Ia, (2S)-3-(3,5-difluorophenyl)-2-[4-[(E)-3-[3-(fluoromethyl)azetidin-1-yl]prop-1-enyl]phenyl]-4-methyl-2H-chromen-7-ol] registered an IC50 in test [1] of 6 nM. In addition, in test [2] (50 mg/kg, p.o., 28 days, once daily), the “% Tumor growth inhibition compared to vehicle group after 28 days” value is on record as 56%. In addition, in test [2] (once daily orally for 28 days), the “Tumor growth compared to the vehicle group (in words)” value is on record as “significant reduction in the tumor growth”.
Regarding `CC1=C(c2cc(F)cc(F)c2)[C@@H](c2ccc(/C=C/CN3CC(CF)C3)cc2)Oc2cc(O)ccc21` [Formula Ib, (2R)-3-(3,5-difluorophenyl)-2-[4-[(E)-3-[3-(fluoromethyl)azetidin-1-yl]prop-1-enyl]phenyl]-4-methyl-2H-chromen-7-ol], in test [1], the concentration for half-maximal inhibition (IC50) came out at 1000 nM. This counts as single-digit micromolar.
